Values of other authors, collected in patent US9271959B2, “Bicyclic tetrahydropyrrole compounds” (Laboratorios del Dr. Esteve, S.A., priority 2006, dated 2016).

Columns and labels:
sigma 1 (σ-1) site = sigma 1 (σ-1) site (Homo sapiens, UniProt Q99720)
sigma (σ-2) site = sigma (σ-2) site (Homo sapiens, UniProt Q5BJF2)
Chain of sigma (σ-2) site (Q5BJF2 whole entry): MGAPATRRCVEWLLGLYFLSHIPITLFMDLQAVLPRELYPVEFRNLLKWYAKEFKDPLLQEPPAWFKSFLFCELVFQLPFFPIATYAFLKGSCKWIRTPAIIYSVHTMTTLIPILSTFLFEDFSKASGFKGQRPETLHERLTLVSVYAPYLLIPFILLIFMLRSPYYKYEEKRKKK

Chain of sigma 1 (σ-1) site (Q99720 whole entry): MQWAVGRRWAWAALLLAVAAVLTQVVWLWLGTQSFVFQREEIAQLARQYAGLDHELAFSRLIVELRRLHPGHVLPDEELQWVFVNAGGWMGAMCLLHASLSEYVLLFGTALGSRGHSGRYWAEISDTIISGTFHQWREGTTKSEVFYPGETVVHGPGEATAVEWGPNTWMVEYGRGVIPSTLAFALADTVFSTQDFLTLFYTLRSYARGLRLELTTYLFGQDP

## SKF 10047
Sigma 1 (σ-1) site
  affinity for the sigma 1 (σ-1) site: nanomolar affinity
Sigma (σ-2) site
  affinity for the sigma (σ-2) site: micromolar affinity
